Assays:
[1] = target: T1, Phosphatidylinositol 5-phosphate 4-kinase type-2 alpha (Homo sapiens) (UniProt P48426); experiment: Inhibition of PIP4K2A ATP labeling site harbouring TVKHGAGAEISTVNPEQYSK in human Huh-7 cell lysate at 1 uM by KiNativ Profiling analysis relative to control; assay type: subcellular
T1 sequence (whole entry): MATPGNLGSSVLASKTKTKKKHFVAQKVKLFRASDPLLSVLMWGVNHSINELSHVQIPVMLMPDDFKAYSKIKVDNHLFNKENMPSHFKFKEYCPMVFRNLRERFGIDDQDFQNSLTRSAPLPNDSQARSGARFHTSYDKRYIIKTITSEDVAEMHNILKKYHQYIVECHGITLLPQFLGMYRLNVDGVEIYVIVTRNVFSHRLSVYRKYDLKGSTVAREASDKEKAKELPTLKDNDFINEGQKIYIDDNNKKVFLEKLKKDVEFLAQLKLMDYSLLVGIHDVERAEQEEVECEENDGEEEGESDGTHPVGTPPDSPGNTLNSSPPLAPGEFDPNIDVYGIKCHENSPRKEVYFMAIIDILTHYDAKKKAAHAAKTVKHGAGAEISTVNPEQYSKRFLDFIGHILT

[2] = target: Tyrosine-protein kinase Fer (Homo sapiens, UniProt P16591); experiment: Inhibition of FER Lys1 labeling site in human Huh-7 cells at 1 uM by KiNativ Profiling analysis relative to control; assay type: cell-based
Sequence of Tyrosine-protein kinase Fer (P16591 whole entry, looked up): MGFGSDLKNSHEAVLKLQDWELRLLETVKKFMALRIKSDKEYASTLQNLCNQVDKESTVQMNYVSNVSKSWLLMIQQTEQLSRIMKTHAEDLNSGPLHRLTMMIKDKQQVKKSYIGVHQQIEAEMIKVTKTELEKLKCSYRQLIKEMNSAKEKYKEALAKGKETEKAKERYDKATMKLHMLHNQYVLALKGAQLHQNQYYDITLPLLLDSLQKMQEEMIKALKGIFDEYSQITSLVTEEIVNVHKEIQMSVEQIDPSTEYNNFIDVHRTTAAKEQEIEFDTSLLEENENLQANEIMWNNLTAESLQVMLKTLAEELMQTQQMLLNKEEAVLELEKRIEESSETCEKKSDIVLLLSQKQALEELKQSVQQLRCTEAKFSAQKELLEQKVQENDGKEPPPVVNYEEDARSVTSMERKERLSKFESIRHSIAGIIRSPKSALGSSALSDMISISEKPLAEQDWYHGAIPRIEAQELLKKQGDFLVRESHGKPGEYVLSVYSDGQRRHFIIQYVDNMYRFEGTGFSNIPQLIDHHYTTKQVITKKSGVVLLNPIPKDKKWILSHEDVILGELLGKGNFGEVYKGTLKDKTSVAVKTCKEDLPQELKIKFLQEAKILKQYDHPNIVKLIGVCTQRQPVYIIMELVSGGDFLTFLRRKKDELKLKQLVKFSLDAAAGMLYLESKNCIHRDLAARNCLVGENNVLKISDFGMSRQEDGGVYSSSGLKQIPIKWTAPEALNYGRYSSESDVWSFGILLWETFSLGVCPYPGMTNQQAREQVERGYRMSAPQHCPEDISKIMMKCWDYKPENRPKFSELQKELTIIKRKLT

[3] = target: Mitogen-activated protein kinase 10 (Homo sapiens, UniProt P53779); experiment: Inhibition of JNK3 Lys2 labeling site in human Huh-7 cells at 1 uM by KiNativ Profiling analysis relative to control; assay type: cell-based
[4] = target: Phosphatidylinositol 4,5-bisphosphate 3-kinase catalytic subunit beta isoform (Homo sapiens) (UniProt P42338); experiment: Inhibition of PIK3CB ATP labeling site harbouring VFGEDSVGVIFKNGDDLRQDMLTLQMLR in human Huh-7 cells at 1 uM by KiNativ Profiling analysis relative to control; assay type: cell-based
Sequence of Phosphatidylinositol 4,5-bisphosphate 3-kinase catalytic subunit beta isoform (Homo sapiens) (P42338 whole entry, looked up, canonical isoform): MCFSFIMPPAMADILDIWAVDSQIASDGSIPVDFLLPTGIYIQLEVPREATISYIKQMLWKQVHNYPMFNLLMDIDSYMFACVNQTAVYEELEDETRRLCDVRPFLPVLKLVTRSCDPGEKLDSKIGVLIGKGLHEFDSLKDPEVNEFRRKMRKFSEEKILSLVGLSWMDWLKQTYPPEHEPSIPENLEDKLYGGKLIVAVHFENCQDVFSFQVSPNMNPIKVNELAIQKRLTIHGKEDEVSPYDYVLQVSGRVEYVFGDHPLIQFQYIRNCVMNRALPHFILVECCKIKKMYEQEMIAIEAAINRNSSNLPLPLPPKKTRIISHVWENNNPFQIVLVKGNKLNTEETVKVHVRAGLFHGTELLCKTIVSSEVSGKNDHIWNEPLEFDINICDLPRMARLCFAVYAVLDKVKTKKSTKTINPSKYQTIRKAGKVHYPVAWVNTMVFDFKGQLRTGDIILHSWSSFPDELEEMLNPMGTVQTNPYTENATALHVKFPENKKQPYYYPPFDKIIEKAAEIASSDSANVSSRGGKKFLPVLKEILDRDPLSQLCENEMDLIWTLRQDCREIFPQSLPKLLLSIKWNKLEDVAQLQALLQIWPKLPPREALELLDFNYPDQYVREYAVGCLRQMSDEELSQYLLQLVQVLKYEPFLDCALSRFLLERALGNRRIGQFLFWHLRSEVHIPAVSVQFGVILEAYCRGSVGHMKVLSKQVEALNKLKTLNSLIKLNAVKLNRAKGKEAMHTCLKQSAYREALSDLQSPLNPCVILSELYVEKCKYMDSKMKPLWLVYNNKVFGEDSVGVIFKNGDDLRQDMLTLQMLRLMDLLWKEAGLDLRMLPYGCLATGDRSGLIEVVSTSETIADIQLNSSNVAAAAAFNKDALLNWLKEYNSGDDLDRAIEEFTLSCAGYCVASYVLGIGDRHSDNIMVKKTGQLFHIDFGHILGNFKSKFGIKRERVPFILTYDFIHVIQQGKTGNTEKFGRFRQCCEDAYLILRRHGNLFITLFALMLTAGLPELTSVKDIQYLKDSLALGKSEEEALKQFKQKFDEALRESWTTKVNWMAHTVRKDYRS

[5] = target: 1-phosphatidylinositol 3-phosphate 5-kinase (Homo sapiens) (UniProt Q9Y2I7); experiment: Inhibition of PIP5K3 ATP labeling site in human Huh-7 cells at 10 uM by KiNativ Profiling analysis relative to control; assay type: cell-based
[6] = target: Tyrosine-protein kinase JAK1 (Homo sapiens) (UniProt P23458); experiment: Inhibition of JAK1 Domain 2 ACT labeling site harbouring IGDFGLTKAIETDKEYYTVK in human Huh-7 cells at 1 uM by KiNativ Profiling analysis relative to control; assay type: cell-based
Sequence of Tyrosine-protein kinase JAK1 (Homo sapiens) (P23458 whole entry, the tested form may be a part): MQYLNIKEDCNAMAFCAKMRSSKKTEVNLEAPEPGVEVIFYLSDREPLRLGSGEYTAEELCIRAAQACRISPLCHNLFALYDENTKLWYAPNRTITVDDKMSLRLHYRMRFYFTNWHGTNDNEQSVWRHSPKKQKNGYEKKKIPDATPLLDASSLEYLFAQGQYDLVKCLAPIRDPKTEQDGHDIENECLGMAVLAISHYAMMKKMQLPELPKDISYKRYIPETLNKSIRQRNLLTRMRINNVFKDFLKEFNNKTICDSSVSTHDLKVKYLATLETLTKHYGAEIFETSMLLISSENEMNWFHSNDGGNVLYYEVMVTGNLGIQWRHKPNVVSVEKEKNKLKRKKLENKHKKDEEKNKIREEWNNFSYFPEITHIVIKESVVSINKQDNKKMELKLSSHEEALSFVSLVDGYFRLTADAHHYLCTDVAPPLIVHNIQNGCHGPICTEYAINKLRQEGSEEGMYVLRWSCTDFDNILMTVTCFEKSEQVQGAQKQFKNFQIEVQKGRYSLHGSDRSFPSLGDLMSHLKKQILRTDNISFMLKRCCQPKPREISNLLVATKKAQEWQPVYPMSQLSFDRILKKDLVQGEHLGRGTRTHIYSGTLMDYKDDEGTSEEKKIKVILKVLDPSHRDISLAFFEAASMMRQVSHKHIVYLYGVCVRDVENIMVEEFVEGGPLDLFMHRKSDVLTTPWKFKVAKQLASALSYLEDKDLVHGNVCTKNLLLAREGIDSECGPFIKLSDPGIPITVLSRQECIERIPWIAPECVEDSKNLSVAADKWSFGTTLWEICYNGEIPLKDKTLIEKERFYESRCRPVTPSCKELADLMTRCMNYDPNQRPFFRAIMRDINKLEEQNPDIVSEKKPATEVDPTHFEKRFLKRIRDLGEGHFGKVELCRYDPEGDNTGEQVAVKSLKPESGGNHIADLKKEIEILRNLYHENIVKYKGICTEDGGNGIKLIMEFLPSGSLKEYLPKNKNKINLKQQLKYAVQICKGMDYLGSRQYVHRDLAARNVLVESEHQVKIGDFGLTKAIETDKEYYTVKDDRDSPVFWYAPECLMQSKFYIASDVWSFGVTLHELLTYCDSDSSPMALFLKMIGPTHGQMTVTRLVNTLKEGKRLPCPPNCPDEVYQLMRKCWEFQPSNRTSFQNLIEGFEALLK

[7] = target: T2, Dual specificity mitogen-activated protein kinase kinase 6 (Homo sapiens) (UniProt P52564); experiment: Inhibition of MAP2K6 K1 labeling site in human Huh-7 cells at 1 uM by KiNativ Profiling analysis relative to control; assay type: cell-based
T2 sequence (whole entry): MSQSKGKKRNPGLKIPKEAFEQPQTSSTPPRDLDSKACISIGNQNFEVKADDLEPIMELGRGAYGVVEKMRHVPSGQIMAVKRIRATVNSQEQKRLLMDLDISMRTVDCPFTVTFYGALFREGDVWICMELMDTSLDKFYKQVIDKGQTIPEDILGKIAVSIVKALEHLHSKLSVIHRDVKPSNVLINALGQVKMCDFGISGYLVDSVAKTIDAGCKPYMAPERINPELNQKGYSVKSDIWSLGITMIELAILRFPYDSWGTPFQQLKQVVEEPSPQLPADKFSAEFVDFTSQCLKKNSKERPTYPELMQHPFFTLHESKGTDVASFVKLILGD

[8] = test system: Tyrosine-protein kinase ABL1 (Homo sapiens), P00519 [T315I]; experiment: Inhibition of ABL1 T315I mutant (unknown origin) at 10 uM by Ambit Kinomescan binding assay relative to control; values are per cent of control
[9] = target: STE20-like serine/threonine-protein kinase (Homo sapiens) (UniProt Q9H2G2); experiment: Inhibition of SLK (unknown origin) at 1 uM by Ambit Kinomescan binding assay relative to control
Sequence of STE20-like serine/threonine-protein kinase (Homo sapiens) (Q9H2G2 whole entry, looked up): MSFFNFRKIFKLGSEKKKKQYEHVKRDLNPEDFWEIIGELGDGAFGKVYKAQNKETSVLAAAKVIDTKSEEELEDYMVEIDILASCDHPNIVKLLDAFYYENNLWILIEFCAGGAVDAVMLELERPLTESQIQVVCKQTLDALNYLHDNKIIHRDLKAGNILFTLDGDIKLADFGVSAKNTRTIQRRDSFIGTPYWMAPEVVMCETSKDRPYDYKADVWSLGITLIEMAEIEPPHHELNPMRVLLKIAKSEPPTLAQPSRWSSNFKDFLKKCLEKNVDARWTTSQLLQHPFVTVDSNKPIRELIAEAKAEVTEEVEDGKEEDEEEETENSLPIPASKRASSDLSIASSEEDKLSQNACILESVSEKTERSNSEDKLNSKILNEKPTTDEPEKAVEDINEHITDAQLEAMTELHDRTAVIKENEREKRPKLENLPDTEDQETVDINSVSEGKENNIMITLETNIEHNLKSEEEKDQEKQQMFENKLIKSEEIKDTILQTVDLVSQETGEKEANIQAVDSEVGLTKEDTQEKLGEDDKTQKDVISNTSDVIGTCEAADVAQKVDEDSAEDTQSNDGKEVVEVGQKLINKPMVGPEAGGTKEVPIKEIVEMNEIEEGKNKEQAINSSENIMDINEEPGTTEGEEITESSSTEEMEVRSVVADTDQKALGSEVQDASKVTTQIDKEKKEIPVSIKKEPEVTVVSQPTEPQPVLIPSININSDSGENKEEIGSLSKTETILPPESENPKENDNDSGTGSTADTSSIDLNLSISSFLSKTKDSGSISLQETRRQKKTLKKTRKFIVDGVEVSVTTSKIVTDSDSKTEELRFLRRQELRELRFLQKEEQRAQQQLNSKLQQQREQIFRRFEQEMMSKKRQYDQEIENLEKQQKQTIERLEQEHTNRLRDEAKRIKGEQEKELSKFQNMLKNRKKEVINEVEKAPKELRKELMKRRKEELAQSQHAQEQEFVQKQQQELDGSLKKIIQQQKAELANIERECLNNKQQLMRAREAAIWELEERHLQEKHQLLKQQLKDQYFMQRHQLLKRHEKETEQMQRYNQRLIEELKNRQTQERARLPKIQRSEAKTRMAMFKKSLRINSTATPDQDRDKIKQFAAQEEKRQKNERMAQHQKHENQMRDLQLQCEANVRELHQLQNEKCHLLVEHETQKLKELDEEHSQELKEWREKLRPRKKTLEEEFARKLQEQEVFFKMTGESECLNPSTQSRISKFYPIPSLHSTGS

[10] = target: T3, NUAK family SNF1-like kinase 2 (Homo sapiens) (UniProt Q9H093); experiment: Inhibition of SNARK (unknown origin) at 1 uM by Ambit Kinomescan binding assay relative to control
T3 sequence (whole entry): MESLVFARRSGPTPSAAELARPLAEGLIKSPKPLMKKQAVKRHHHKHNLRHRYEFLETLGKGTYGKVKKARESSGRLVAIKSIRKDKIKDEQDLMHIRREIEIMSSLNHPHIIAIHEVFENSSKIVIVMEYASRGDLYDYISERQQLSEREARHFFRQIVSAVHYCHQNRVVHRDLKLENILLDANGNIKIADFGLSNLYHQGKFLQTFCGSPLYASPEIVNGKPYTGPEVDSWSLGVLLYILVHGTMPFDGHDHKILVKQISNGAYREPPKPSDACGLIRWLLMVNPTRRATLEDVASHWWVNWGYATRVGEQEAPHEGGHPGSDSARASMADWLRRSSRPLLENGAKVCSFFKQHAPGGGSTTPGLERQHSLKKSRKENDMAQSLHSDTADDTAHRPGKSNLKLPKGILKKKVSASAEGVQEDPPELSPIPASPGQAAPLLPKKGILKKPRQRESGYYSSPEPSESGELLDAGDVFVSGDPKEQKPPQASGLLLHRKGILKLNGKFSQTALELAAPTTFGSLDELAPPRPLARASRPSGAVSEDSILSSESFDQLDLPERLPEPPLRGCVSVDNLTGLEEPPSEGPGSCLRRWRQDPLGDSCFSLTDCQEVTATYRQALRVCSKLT

[11] = target: NT-3 growth factor receptor (Homo sapiens) (UniProt Q16288); experiment: Inhibition of TRKC (unknown origin) at 1 uM by Ambit Kinomescan binding assay relative to control
Sequence of NT-3 growth factor receptor (Homo sapiens) (Q16288 32-839 limits assumed): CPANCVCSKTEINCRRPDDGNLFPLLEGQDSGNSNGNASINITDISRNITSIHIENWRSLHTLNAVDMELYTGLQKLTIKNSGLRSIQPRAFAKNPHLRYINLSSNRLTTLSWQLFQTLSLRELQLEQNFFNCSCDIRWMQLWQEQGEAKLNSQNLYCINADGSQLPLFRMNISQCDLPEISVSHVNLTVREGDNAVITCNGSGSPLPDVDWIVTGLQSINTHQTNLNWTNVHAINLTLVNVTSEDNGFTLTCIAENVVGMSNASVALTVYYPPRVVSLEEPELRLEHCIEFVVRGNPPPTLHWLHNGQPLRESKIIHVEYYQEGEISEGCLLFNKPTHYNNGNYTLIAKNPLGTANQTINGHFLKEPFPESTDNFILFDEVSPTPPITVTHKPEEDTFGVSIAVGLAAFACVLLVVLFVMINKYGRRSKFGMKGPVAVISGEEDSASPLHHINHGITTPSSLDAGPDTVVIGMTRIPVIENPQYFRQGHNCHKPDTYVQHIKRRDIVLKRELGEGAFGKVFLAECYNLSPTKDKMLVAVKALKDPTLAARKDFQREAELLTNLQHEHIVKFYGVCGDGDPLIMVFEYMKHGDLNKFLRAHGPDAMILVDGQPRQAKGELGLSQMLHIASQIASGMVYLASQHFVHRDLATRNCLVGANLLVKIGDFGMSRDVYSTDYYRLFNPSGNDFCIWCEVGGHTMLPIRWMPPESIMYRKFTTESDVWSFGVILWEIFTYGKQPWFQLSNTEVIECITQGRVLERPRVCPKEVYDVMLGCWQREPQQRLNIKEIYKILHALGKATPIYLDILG

Which results are given for CNc1cc(Oc2cc(C(=O)Nc3cc(N4CCN(C)CC4)cc(C(F)(F)F)c3)ccc2C)ncn1?
inhibition [1]: -5.4%; inhibition [2]: -7.1%; inhibition [3]: 14.5%; inhibition [4]: 14%

With CCN1CCN(Cc2ccc(NC(=O)c3ccc(C)c(Oc4ccnc5[nH]ccc45)c3)cc2C(F)(F)F)CC1 as the molecule, how does the inhibition [5] read?
Its inhibition is 13.8%.

What about the inhibition [6] of the same molecule?
Its inhibition is -6.4%.

What about the inhibition [7] of the same molecule?
Its inhibition is 16.3%.

What about the percent of control [8] of the same molecule?
Its percent of control is 0%.

With CCN1CCN(Cc2ccc(NC(=O)c3ccc(C)c(/C=C/c4cnc5[nH]ccc5c4OC)c3)cc2C(F)(F)F)CC1 as the molecule, how does the inhibition [9] read?
Its inhibition is 13%.

And the inhibition [10]?
The inhibition was 76%.

What about the inhibition [11] of the same molecule?
The inhibition was 47%.
